Patent US10253002B2, “Compounds and methods of treating infections” (Neoculi Pty Ltd., priority 2013, dated 2019)

Assays:
S. pneumoniae isolates = assay: Disk diffusion susceptibility (CLSI/EUCAST), Example 5; format: cell-based, Streptococcus pneumoniae
How it was run: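 Susceptibility to 12 antimicrobials was categorised (S/I/R) using CLSI breakpoints from zones of complete inhibition, read thrice to the nearest millimetre with the mode taken. Incubation was 16–24 h, 37 °C, 5% CO2.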

Streptococcus pneumoniae = settings: control strain Streptococcus pneumoniae ATCC 49619; cited from earlier work
S. pneumoniae strain D39 = assay: Micro-broth dilution time kill studies; format: cell-based, Streptococcus pneumoniae; settings: D39 treated with 54 μg/mL NCL812
[1] = water containing 4% DMSO, following initial dilution in 100% DMSO; recent independent research; cited from earlier work
[2] = Precipitation of NCL812 in assay media, Examples 2 and 3; format: physicochemical
Staphylococcus aureus = assay: Mouse skin wound infection model, topical treatment; format: in vivo, mice; settings: 14 treatments
Excerpt: Preliminary studies prior to the conduct of the current study established a new method of skin infection arising from a detailed study of the models mentioned above. Briefly, study mice are anaesthetised, a patch of dorsal skin is clipped to reveal the skin and a circular area of skin is removed with a hand held punch, leaving a wound on the dorsum with a central cavity. The wound is infected with a known number of the challenge organism. Approximately four to six hours after infection, the wound is either treated topically with a vehicle formulation or an active formulation. The infected skin wound is retreated every 12 hours for a total of 14 treatments. Mice are humanely euthanased, the area of the original infected wound is dissected and removed and its bacterial content quantified by standard microbiologic tests. In this way, the change in bacterial concentration due to treatment with the active formulation can be readily determined by examining the reduction in bacterial burden compared with the vehicle control. Fresh cultures of bacteria (Staphylococcus aureus) were grown on Sheep Blood Agar at 37° C. for 16-18 hours. A few typical colonies were selected and suspended in 10 ml of Tryptic Soy Broth and incubated overnight in a shaking incubator (240 rpm) at 37° C. The overnight suspension was vortexed and diluted (1:100) in fresh Tryptic soy broth (100 μl [0.1 ml] in 9.9 ml broth). The fresh suspension was incubated for 3 hours in a shaking incubator (as above) in order to obtain mid-logarithmic phase bacteria. Bacteria were pelleted through centrifugation at 7,500 rpm for 10 mins. Broth supernatant was removed and bacteria suspended in 10 ml Phosphate Buffered Saline (PBS). These steps were repeated a further two times. The density of the suspension was checked by measuring absorbance at 600 nm, using a spectrophotometer with saline as a blank, to confirm the target density at a reading of approximately 0.100, consistent with a bacterial density of 2.5×10^7 CFU/ml. The suspension was placed into a rack placed into a lockable transport box with an ice brick to maintain refrigeration during transport, followed by storage in cool room upon arrival at the mouse skin infection laboratory. Final suspension was mixed thoroughly before inoculating the skin wounds created in mice. […] Eyes of each anaesthetised mouse were covered with veterinary eye lubricant in order to prevent corneal dehydration. Each mouse removed from induction chamber and placed onto surgical area, in front of individual aesthetic nose cone. While under anaesthesia each mouse was monitored for assessment of depth of anaesthesia (response to pain, blink reflex, skeletal muscle tone) and respiratory and cardiac function. Back skin hair was shaved from surgical area with mechanical clippers. […] Once the iodine solution was dry, a subcutaneous injection of the nonsteroidal anti-inflammatory agent meloxicam was administered. Dorsal skin was pinched gently to allow creation of a circular full-thickness wound using ear punch/biopsy punch. […] Once the bacterial suspension was dry, mice were placed into individual recovery boxes labelled with the mouse number. The time of inoculation was recorded. Initial body weights of each mouse were recorded on the appropriate score sheet. Mice recovered to full consciousness within 5 minutes. Recovered mice were returned to individual housing and monitored hourly for post-surgical or anaesthetic complications. […] Each ointment container was weighted prior to administration and the weight recorded. Each mouse was carefully restrained. […] The weight of the ointment container post-administration was recorded. […] At the end of the 7 day skin wound assessment period, all test mice were euthanased prior to wound collection for post mortem examination. The skin wound was dissected from the dorsum of each mouse. The sample was placed in a sample tube and weighed before 1 ml PBS and sterile tissue homogenisation beads were added. […]

## CC1(C)S[C@@H]2[C@H](NC(=O)[C@H](N)c3ccccc3)C(=O)N2[C@H]1C(=O)O [Ampicillin]
S. pneumoniae isolates; A66.1
  disk diffusion zone diameter: 37 mm
S. pneumoniae isolates; D39
  disk diffusion zone diameter: 37 mm
S. pneumoniae isolates; EF3030
  disk diffusion zone diameter: 38 mm
S. pneumoniae isolates; L82016
  disk diffusion zone diameter: 41 mm
S. pneumoniae isolates; P9
  disk diffusion zone diameter: 33 mm
S. pneumoniae isolates; P21
  disk diffusion zone diameter: 40 mm
S. pneumoniae isolates; TIGR4
  disk diffusion zone diameter: 37 mm
S. pneumoniae isolates; WCH16
  disk diffusion zone diameter: 41 mm
S. pneumoniae isolates; WCH43
  disk diffusion zone diameter: 36 mm
S. pneumoniae isolates; WCH46
  disk diffusion zone diameter: 37 mm
S. pneumoniae isolates; WCH57
  disk diffusion zone diameter: 43 mm
S. pneumoniae isolates; WCH77
  disk diffusion zone diameter: 43 mm
S. pneumoniae isolates; WCH86
  disk diffusion zone diameter: 38 mm
S. pneumoniae isolates; WCH89
  disk diffusion zone diameter: 38 mm
S. pneumoniae isolates; WCH92
  disk diffusion zone diameter: 38 mm
S. pneumoniae isolates; WCH137
  disk diffusion zone diameter: 40 mm
S. pneumoniae isolates; WCH158
  disk diffusion zone diameter: 42 mm
S. pneumoniae isolates; WCH184
  disk diffusion zone diameter: 33 mm
S. pneumoniae isolates; WCH211
  disk diffusion zone diameter: 39 mm
S. pneumoniae isolates; WU2
  disk diffusion zone diameter: 38 mm
S. pneumoniae isolates; isolate A66.1
  Resistance status to Ampicillin: Sensitive
S. pneumoniae isolates; isolate D39
  Resistance status to Ampicillin: Sensitive
S. pneumoniae isolates; isolate P21
  Resistance status to Ampicillin: Sensitive
S. pneumoniae isolates; isolate WCH57
  Resistance status to Ampicillin: Sensitive
S. pneumoniae isolates; isolate WCH158
  Resistance status to Ampicillin: Sensitive
S. pneumoniae isolates; isolate WU-2
  Resistance status to Ampicillin: Sensitive
Streptococcus pneumoniae
  Acceptable MIC range for Ampicillin: 0.06 to 0.25 µg/mL

## N=C(N/N=C/c1ccc(Cl)cc1)N/N=C/c1ccc(Cl)cc1 [NCL812, 1,3-bis[(E)-(4-chlorophenyl)methyleneamino]guanidine]
S. pneumoniae strain D39
  time at which treated D39 entered a log phase of growth: 6 h
[1]
  solubility: complete solubility
[2]; MIC plates prepared identically without inoculum, MHB II
  Precipitation of NCL812 observed at: ≥ 8 µg/mL
[2]; Mueller Hinton broth II, DNA and RNA synthesis assays
  precipitation observed at: 4 to 8 fold the MIC
Staphylococcus aureus; mice, Formulation B 20 mg/g topically every 12 hours, vehicle 6.77
  mean colony count per g of tissue, log10: 5.15 log10
Staphylococcus aureus; mice, Formulation B 20 mg/g topically every 12 hours, vehicle 5,888,436
  mean colony count per g of tissue: 141,254
Staphylococcus aureus; mouse skin wound infected with Staphylococcus aureus, topical ointment (Formulation B, 20 mg/g) every 12 hours, end of 7 day period, relative to vehicle group
  % reduction (of colony forming units per gram of tissue versus vehicle): 97.6%
Staphylococcus aureus; mouse skin wound infected with Staphylococcus aureus, topical ointment (Formulation B, 20 mg/g) every 12 hours, wound tissue at end of 7 day period, group mean
  Log10 (CFU/g): colony forming units per gram of tissue: 5.15 Log10 (CFU/g)
